Data on 32 compounds can be found in US20030095958A1, “Inhibitors of bace” (priority 2001, published 2003).

Chain of BACE (P56817 46-501): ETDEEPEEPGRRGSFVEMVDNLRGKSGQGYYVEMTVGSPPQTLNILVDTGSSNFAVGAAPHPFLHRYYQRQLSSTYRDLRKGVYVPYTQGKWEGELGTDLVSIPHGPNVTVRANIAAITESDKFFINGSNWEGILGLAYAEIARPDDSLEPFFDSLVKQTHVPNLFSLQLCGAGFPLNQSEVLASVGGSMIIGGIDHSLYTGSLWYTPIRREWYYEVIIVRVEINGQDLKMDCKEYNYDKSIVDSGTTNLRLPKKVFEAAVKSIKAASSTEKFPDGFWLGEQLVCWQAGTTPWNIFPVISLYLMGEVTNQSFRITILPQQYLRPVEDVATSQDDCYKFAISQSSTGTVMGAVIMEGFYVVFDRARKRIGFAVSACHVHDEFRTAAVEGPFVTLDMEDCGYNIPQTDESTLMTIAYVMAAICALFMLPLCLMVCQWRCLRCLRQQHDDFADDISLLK

This assay addresses BACE (Homo sapiens, UniProt P56817). The experiment in a line: Ki Determination for the Inhibition of BACE (FS-1 peptide fluorescence cleavage assay). Type of assay: biochemical. The following applies: apparent Ki; 50 nM BACE, 10 μM FS-1 substrate, 0.1M sodium acetate pH 4.5. The method, boiled down: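 Apparent Ki values derive from fitting fluorescence progress data (355 nm excitation, 495 nm emission) of FS-1 peptide cleavage to an integrated competitive tight-binding model. Reactions held 50 nM BACE, 10 μM substrate and inhibitor in 2% DMSO, pH 4.5 acetate buffer, with a 15 min enzyme-compound preincubation at room temperature.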
For the compound `Oc1cccc(-c2cc(COc3ccccc3C(F)(F)F)c(C3=CCNCC3)cc2COc2ccccc2C(F)(F)F)c1` [Compound 351, 4′-(1,2,3,6-Tetrahydro-pyridin-4-yl)-2′,5′-bis-(2-trifluoromethyl-phenoxymethyl)-biphenyl-3-ol], the Ki was under 3 µM.

Regarding `Oc1ccc(-c2cc(COc3ccccc3C(F)(F)F)c(C3=CCNCC3)cc2COc2ccccc2C(F)(F)F)cc1` [Compound 352, 4′-(1,2,3,6-Tetrahydro-pyridin-4-yl)-2′,5′-bis-(2-trifluoromethyl-phenoxymethyl)-biphenyl-4-ol], the Ki was under 3 µM.

Regarding `O=[N+]([O-])c1cccc(-c2cc(COc3ccccc3C(F)(F)F)c(C3=CCNCC3)cc2COc2ccccc2C(F)(F)F)c1` [Compound 353, 4-[3′-Nitro-2,5-bis-(2-trifluoromethyl-phenoxymethyl)-biphenyl-4-yl]-1,2,3,6-tetrahydro-pyridine], the Ki was under 3 µM.

For `O=[N+]([O-])c1ccc(-c2cc(COc3ccccc3C(F)(F)F)c(C3=CCNCC3)cc2COc2ccccc2C(F)(F)F)cc1` [Compound 354, 4-[4′-Nitro-2,5-bis-(2-trifluoromethyl-phenoxymethyl)-biphenyl-4-yl]-1,2,3,6-tetrahydro-pyridine], the Ki is under 3 µM.

As to `CC(O)c1ccccc1-c1cc(COc2ccccc2C(F)(F)F)c(C2=CCNCC2)cc1COc1ccccc1C(F)(F)F` (centres unmarked) [Compound 355, 1-[4′-(1,2,3,6-Tetrahydro-pyridin-4-yl)-2′,5′-bis-(2-trifluoromethyl-phenoxymethyl)-biphenyl-2-yl]-ethanol], the Ki was under 3 µM.

Turning to `FC(F)(F)c1ccccc1OCc1cc(COc2ccccc2C(F)(F)F)c(C2=CCNCC2)cc1COc1ccccc1C(F)(F)F` [Compound 356, 4-[2,4,5-Tris-(2-trifluoromethyl-phenoxymethyl)-phenyl]-1,2,3,6-tetrahydro-pyridine], the Ki is under 3 µM.

For the compound `FC(F)(F)c1ccccc1OCc1cc(-c2cc3ccccc3o2)c(COc2ccccc2C(F)(F)F)cc1C1=CCNCC1` [Compound 357, 4-[4-Benzofuran-2-yl-2,5-bis-(2-trifluoromethyl-phenoxymethyl)-phenyl]-1,2,3,6-tetrahydro-pyridine], the Ki is under 3 µM.

On to `FC(F)(F)c1ccccc1OCc1cc(-c2ccc[nH]2)c(COc2ccccc2C(F)(F)F)cc1C1=CCNCC1` [Compound 358, 4-[4-(1H-Pyrrol-2-yl)-2,5-bis-(2-trifluoromethyl-phenoxymethyl)-phenyl]-1,2,3,6-tetrahydro-pyridine], for which the Ki is under 3 µM.

Regarding `Nc1ccc(-c2cc(COc3ccccc3C(F)(F)F)c(C3=CCNCC3)cc2COc2ccccc2C(F)(F)F)cc1` [Compound 359, 4′-(1,2,3,6-Tetrahydro-pyridin-4-yl)-2′,5′-bis-(2-trifluoromethyl-phenoxymethyl)-biphenyl-4-ylamine], the Ki is under 3 µM.

In the case of `FC(F)(F)c1ccccc1OCc1cc(-c2ccccc2)ccc1C1=CCNCC1` [Compound 360, 4-[3-(2-Trifluoromethyl-phenoxymethyl)-biphenyl-4-yl]-1,2,3,6-tetrahydro-pyridine], the Ki was under 3 µM.

For the compound `Oc1ccc(-c2ccc(C3=CCNCC3)c(COc3ccccc3C(F)(F)F)c2)cc1` [Compound 361, 4′-(1,2,3,6-Tetrahydro-pyridin-4-yl)-3′-(2-trifluoromethyl-phenoxymethyl)-biphenyl-4-ol], the Ki is 3 to 30 µM.

As to `Oc1ccccc1-c1ccc(C2=CCNCC2)c(COc2ccccc2C(F)(F)F)c1` [Compound 362, 4′-(1,2,3,6-Tetrahydro-pyridin-4-yl)-3′-(2-trifluoromethyl-phenoxymethyl)-biphenyl-2-ol], the Ki was in the range of 3 to 30 µM.

In the case of `FC(F)(F)c1ccccc1OCc1cc(-c2ccoc2)ccc1C1=CCNCC1` [Compound 363, 4-[4-Furan-3-yl-2-(2-trifluoromethyl-phenoxymethyl)-phenyl]-1,2,3,6-tetrahydro-pyridine], the Ki was in the range of 3 to 30 µM.

Consider `NC(=O)c1cccc(-c2cc(COc3ccccc3C(F)(F)F)c(C3=CCNCC3)cc2COc2ccccc2C(F)(F)F)c1` [Compound 364, 4′-(1,2,3,6-Tetrahydro-pyridin-4-yl)-2′,5′-bis-(2-trifluoromethyl-phenoxymethyl)-biphenyl-3-carboxylic acid amide], for which the Ki is under 3 µM.

In the case of `COc1ccc(-c2cc(COc3ccccc3C(F)(F)F)c(C3=CCNCC3)cc2COc2ccccc2C(F)(F)F)cc1` [Compound 365, 4-[4′-Methoxy-2,5-bis-(2-trifluoromethyl-phenoxymethyl)-biphenyl-4-yl]-1,2,3,6-tetrahydro-pyridine], the Ki is under 3 µM.

`OCc1ccc(-c2cc(COc3ccccc3C(F)(F)F)c(C3=CCNCC3)cc2COc2ccccc2C(F)(F)F)cc1` [Compound 366, [4′-(1,2,3,6-Tetrahydro-pyridin-4-yl)-2′,5′-bis-(2-trifluoromethyl-phenoxymethyl)-biphenyl-4-yl]-methanol]: the Ki is under 3 µM.

With `OCc1ccccc1-c1cc(COc2ccccc2C(F)(F)F)c(C2=CCNCC2)cc1COc1ccccc1C(F)(F)F` [Compound 367, [4′-(1,2,3,6-Tetrahydro-pyridin-4-yl)-2′,5′-bis-(2-trifluoromethyl-phenoxymethyl)-biphenyl-2-yl]-methanol], the Ki is under 3 µM.

As to `COC(=O)c1cccc(-c2cc(COc3ccccc3C(F)(F)F)c(C3=CCNCC3)cc2COc2ccccc2C(F)(F)F)c1` [Compound 368, 4′-(1,2,3,6-Tetrahydro-pyridin-4-yl)-2′,5′-bis-(2-trifluoromethyl-phenoxymethyl)-biphenyl-3-carboxylic acid methyl ester], the Ki was under 3 µM.

Consider `COC(=O)c1ccc(-c2cc(COc3ccccc3C(F)(F)F)c(C3=CCNCC3)cc2COc2ccccc2C(F)(F)F)cc1` [Compound 369, 4′-(1,2,3,6-Tetrahydro-pyridin-4-yl)-2′,5′-bis-(2-trifluoromethyl-phenoxymethyl)-biphenyl-4-carboxylic acid methyl ester], for which the Ki is under 3 µM.

On to `O=C(OCc1ccccc1-c1cc(COc2ccccc2C(F)(F)F)c(C2=CCNCC2)cc1COc1ccccc1C(F)(F)F)c1ccco1` [Compound 370, Furan-2-carboxylic acid 4′-(1,2,3,6-tetrahydro-pyridin-4-yl)-2′,5′-bis-(2-trifluoromethyl-phenoxymethyl)-biphenyl-2-ylmethyl ester], for which the Ki was under 3 µM.

For the compound `FC(F)(F)c1ccccc1OCc1cc(C2=CCNCC2)ccc1C1=CCNCC1` [Compound 371, 4-[4-(1,2,3,6-Tetrahydro-pyridin-4-yl)-2-(2-trifluoromethyl-phenoxymethyl)-phenyl]-1,2,5,6-tetrahydro-pyridine], the Ki lay within 3 to 30 µM.

Take `Fc1ccccc1-c1ccc(C2=CCNCC2)c(COc2ccccc2C(F)(F)F)c1` [Compound 372, 4-[2′-Fluoro-3-(2-trifluoromethyl-phenoxymethyl)-biphenyl-4-yl]-1,2,3,6-tetrahydro-pyridine]: the Ki is under 3 µM.

With `FC(F)(F)c1ccccc1OCc1cc(-c2ccccc2Cl)ccc1C1=CCNCC1` [Compound 373, 4-[2′-Chloro-3-(2-trifluoromethyl-phenoxymethyl)-biphenyl-4-yl]-1,2,3,6-tetrahydro-pyridine], the Ki was under 3 µM.

Consider `Cc1ccccc1-c1ccc(C2=CCNCC2)c(COc2ccccc2C(F)(F)F)c1` [Compound 374, 4-[2′-Methyl-3-(2-trifluoromethyl-phenoxymethyl)-biphenyl-4-yl]-1,2,3,6-tetrahydro-pyridine], for which the Ki was under 3 µM.

On to `FC(F)(F)c1ccccc1OCc1cc(-c2ccccc2C(F)(F)F)ccc1C1=CCNCC1` [Compound 375, 4-[2′-Trifluoromethyl-3-(2-trifluoromethyl-phenoxymethyl)-biphenyl-4-yl]-1,2,3,6-tetrahydro-pyridine], for which the Ki was under 3 µM.

Consider `Nc1ccccc1-c1ccc(C2=CCNCC2)c(COc2ccccc2C(F)(F)F)c1` [Compound 376, 4′-(1,2,3,6-Tetrahydro-pyridin-4-yl)-3′-(2-trifluoromethyl-phenoxymethyl)-biphenyl-2-ylamine], for which the Ki is 3 to 30 µM.

In the case of `FC(F)(F)c1ccccc1OCc1cc(Br)ccc1C1=CCNCC1` [Compound 377, 4-[4-Bromo-2-(2-trifluoromethyl-phenoxymethyl)-phenyl]-1,2,3,6-tetrahydro-pyridine], the Ki was in the range of 3 to 30 µM.

Consider `OCc1ccccc1-c1ccc(C2=CCNCC2)c(COc2ccccc2C(F)(F)F)c1` [Compound 378, [4′-(1,2,3,6-Tetrahydro-pyridin-4-yl)-3′-(2-trifluoromethyl-phenoxymethyl)-biphenyl-2-yl]-methanol], for which the Ki was in the range of 3 to 30 µM.

`O=C(OCc1ccccc1-c1ccc(C2=CCNCC2)c(COc2ccccc2C(F)(F)F)c1)c1ccccc1` [Compound 379, Benzoic acid 4′-(1,2,3,6-tetrahydro-pyridin-4-yl)-3′-(2-trifluoromethyl-phenoxymethyl)-biphenyl-2-yl methyl ester]: the Ki was under 3 µM.

For the compound `O=C(OCc1ccccc1-c1ccc(C2=CCNCC2)c(COc2ccccc2C(F)(F)F)c1)c1ccccc1C(F)(F)F` [Compound 380, 2-Trifluoromethyl-benzoic acid 4′-(1,2,3,6-tetrahydro-pyridin-4-yl)-3′-(2-trifluoromethyl-phenoxymethyl)-biphenyl-2-ylmethyl ester], the Ki was under 3 µM.

For the compound `COC(=O)c1cc(C2=CCNCC2)c(COc2ccccc2C(F)(F)F)cc1Br` [Compound 381, 2-Bromo-5-(1,2,3,6-tetrahydro-pyridin-4-yl)-4-(2-trifluoromethyl-phenoxymethyl)-benzoic acid methyl ester], the Ki was 3 to 30 µM.

Regarding `COC(=O)c1cc(C2=CCNCC2)c(COc2ccccc2C(F)(F)F)cc1C1=CCNCC1` [Compound 382, 2,5-Bis-(1,2,3,6-tetrahydro-pyridin-4-yl)-4-(2-trifluoromethyl-phenoxymethyl)-benzoic acid methyl ester], the Ki was in the range of 3 to 30 µM.
